Patent US9161924B2, “Factor IXa inhibitors” (Merck Sharp & Dohme Corp., priority 2011, dated 2015)
Structures can show the parent of a compound that is named as a salt.

These compounds were tested against human factor IXa (Homo sapiens (Human), UniProt P00740) (assay: Factor IXa enzyme assay (inhibitory activity against factor IXa)). Conditions: substrate SPECTROFLUOR FIXa 100 μM, factor IXa 2.0 μg/ml, 60 minutes at room temperature, fluorescence.
Format: biochemical
Description: Determination of Inhibitory Activity Against Factor IXa
Inhibitory activity against factor IXa was tested using the substrate SPECTROFLUOR FIXa (American Diagnostica Inc.; 500 West Avenue, Stamford, Conn. 06902 USA; Pr. No. 299F) and human factor IXa (American Diagnostica Inc.; Pr. No. 449b). Test substances dissolved in buffer A (50 mM α,α,α-tris (hydroxymethyl)methylamine (Tris), 100 mM NaCl, 5 mM CaCl2, 15% (v/v) ethylene glycol, pH 8.0) were mixed with factor IXa (2.0 μg/ml final concentration). The enzyme reaction was started by addition of SPECTROFLUOR FIXa (100 μM final concentration). After incubation for 60 minutes at room temperature, the reaction was stopped by the addition of 20% (v/v) acetic acid solution, and then fluorescence value measured (Excitation Wavelength:355 nm, Emission Wavelength; 460 nm) in a microtiter plate reader (ARVO 1420 Multilabel Counter; PerkinElmer).
IC50 was calculated from a dilution series of the test substance with the aid of the software, Symix Assay Explorer (Symyx Technologies, Inc.).

Chain of human factor IXa (P00740 227-461): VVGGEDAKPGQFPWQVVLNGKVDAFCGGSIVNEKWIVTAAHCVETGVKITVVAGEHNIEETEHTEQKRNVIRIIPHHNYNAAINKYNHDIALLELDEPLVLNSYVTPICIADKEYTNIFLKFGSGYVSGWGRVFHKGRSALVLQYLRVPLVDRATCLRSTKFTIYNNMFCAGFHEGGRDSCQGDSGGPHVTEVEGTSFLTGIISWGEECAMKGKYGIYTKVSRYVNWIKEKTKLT
Chain of human factor IXa (P00740 47-191 partner): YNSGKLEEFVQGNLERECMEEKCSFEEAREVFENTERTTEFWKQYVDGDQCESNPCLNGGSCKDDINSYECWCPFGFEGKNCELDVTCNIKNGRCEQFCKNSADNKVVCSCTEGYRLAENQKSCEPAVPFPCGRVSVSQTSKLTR

Row | SMILES | IC50
1 | N=C(N)c1ccc(NC(=O)C(O)c2cccc(-c3ccc(OC(F)(F)F)cc3)c2)cc1 (stereo not drawn) [Compound 9, N-(4-carbamimidoylphenyl)-2-hydroxy-2-(4′-(trifluoromethoxy)biphenyl-3-yl)acetamide] | 440 nM
2 | N=C(N)c1ccc(NC(=O)C(O)c2cccc(-c3ccc(OC(F)(F)F)cc3)c2)cc1 (stereo not drawn) [Compound 13, N-(4-carbamimidoylphenyl)-2-hydroxy-2-(4′-(trifluoromethoxy)biphenyl-3-yl)acetamide] | 450 nM
3 | Nc1nccc2cc(NC(=O)C(O)c3cccc(-c4ccc(OC(F)(F)F)cc4)c3)ccc12 (stereo not drawn) [Compound 22, N-(1-aminoisoquinolin-6-yl)-2-hydroxy-2-(4′-(trifluoromethoxy)biphenyl-3-yl)acetamide] | 760 nM
4 | CC(C)(C)c1ccc(-c2cccc(C(O)C(=O)Nc3ccc(C(=N)N)cc3)c2)cc1 (stereo not drawn) [Compound 37, 2-(4′-tert-butylbiphenyl-3-yl)-N-(4-carbamimidoylphenyl)-2-hydroxyacetamide hydrochloride] | 160 nM
5 | CC(C)(C)c1ccc(-c2cccc(C(O)C(=O)Nc3ccc4c(N)nccc4c3)c2)cc1 (stereo not drawn) [Compound 42, N-(1-aminoisoquinolin-6-yl)-2-(4′-tert-butylbiphenyl-3-yl)-2-hydroxyacetamide hydrochloride] | 695 nM
6 | CC(C)(C)c1ccc(-c2cccc(C(O)C(=O)Nc3ccc(CN)cc3)c2)cc1 (stereo not drawn) [Compound 52, N-(4-(aminomethyl)phenyl)-2-(4′-tert-butylbiphenyl-3-yl)-2-hydroxyacetamide hydrochloride] | 1450 nM
